These results are taken from patent publication US10174045B2, “Benzopyrylium compounds” (Pierce Biotechnology, Inc., priority 2012, dated 2019).

In one data set the test system is U2OS cells. The data set can be described thus: Immunofluorescence cell based assays, overall summary. As to conditions: summary of all immunofluorescence experiments. The procedure: (§1) In the indicated experiments, the inventive compounds and commercial dye were evaluated for immunofluorescence in a cell based assay using the following protocol. Frozen U20S cell plates stored at −80° C. were thawed for 30 minutes at 50° C. Storage buffer (PBS) was removed and the cells were permeabilized for 15 minutes with 0.1% Triton-X100 in 1×PBS buffer (100 μl/well). The cell plate was blocked for 60 minutes in 2% BSA/PBS-0.1% Triton-X100. Primary antibody, either rabbit anti-lamin B1 or rabbit anti-HDAC2 (10 μg/ml), diluted in 2% BSA/PBS-0.1% Triton-X100 was added to the plate and incubated for one hour at room temperature. Control wells contained only 2% BSA/PBS-0.1% Triton-X100 blocker. After incubation, antibody solution was removed from the plate and the plate was washed three times with 100 μl/well PBS-0.5% Tween-20 and one time with 100 μl/well PBS. GAR secondary antibodies labeled with various molar excess of the inventive or commercial compound were diluted to 4 μg/ml in PBS and incubated for one hour at room temperature. Plates were washed three times with 100 μl/well PBST and once with 100 μl/well PBS, and Hoechst (diluted to 0.1 μg/ml in PBS) was added to each well (100 μl/well). The plates were scanned on ArrayScan Plate Reader.
In the indicated experiments, the inventive compounds and commercial dye were evaluated for immunofluorescence in a cell based assay using the following protocol. Frozen U20S cell plates which were stored at −80° C. were thawed for 30 minutes at 50° C. Storage buffer (PBS) was removed and cells were permeabilized for 15 minutes with 0.1% Triton-X100 in 1×PBS buffer (100 μl/well). The cell plate was blocked for 60 minutes in 2% BSA/PBS-0.1% Triton-X100. Primary antibody, either mouse anti-ezrin (1.3 μg/ml) or mouse anti-NCoR2 (20 μg/ml), diluted in 2% BSA/PBS-0.1% Triton-X100 was added to the plate and incubated for one hour at room temperature. Control wells contained only 2% BSA/PBS-0.1% Triton-X100 blocker. […] The plates were scanned on ArrayScan Plate Reader.

Another data set relates to ezrin in U2OS cells. The data set can be described thus: Immunofluorescence cell based assay, detection of ezrin with dye-GAM. The settings on record: 2.5×-15× molar excess. As for the experimental part: In the indicated experiments, the inventive compounds and commercial dye were evaluated for immunofluorescence in a cell based assay using the following protocol. Frozen U20S cell plates which were stored at −80° C. were thawed for 30 minutes at 50° C. Storage buffer (PBS) was removed and cells were permeabilized for 15 minutes with 0.1% Triton-X100 in 1×PBS buffer (100 μl/well). The cell plate was blocked for 60 minutes in 2% BSA/PBS-0.1% Triton-X100. Primary antibody, either mouse anti-ezrin (1.3 μg/ml) or mouse anti-NCoR2 (20 μg/ml), diluted in 2% BSA/PBS-0.1% Triton-X100 was added to the plate and incubated for one hour at room temperature. Control wells contained only 2% BSA/PBS-0.1% Triton-X100 blocker. After incubation, the antibody solution was removed from the plate and the plate was washed three times with 100 μl/well of PBS-0.5% Tween-20 and one time with 100 μl/well PBS. GAM secondary antibodies labeled with various molar excess of the inventive or commercial compound were diluted to 4 μg/ml in PBS and incubated for one hour at room temperature. […] The plates were scanned on ArrayScan Plate Reader.
Quantitative analysis of the data of FIGS. 17-19, expressed as Mean Total Intensity, which is the average total intensity of all pixels within a defined area or defined primary object such as a nucleus, is shown below; “Neg” indicates negative control.

In the next data set the test system is mouse IgG immunoglobulin. The data set can be described thus: Functional plate assay of dye-GAM conjugates, LiCor Odyssey 700 channel. The settings on record: GAM conjugated with 5× molar excess, FIG. 6-7. It counts as binding. The procedure: Performance of dye-GAM and dye-GAR conjugates was evaluated in a functional assay. Wells of a 96-well black clear-bottom plate were coated with target protein mouse or rabbit IgG immunoglobulin. One hundred μl mouse or rabbit IgG, at 10 μg/ml, was applied to the corresponding wells in row 1. The target proteins were serially diluted 1:1 from the wells in rows 2 to 7 using 100 μl PBS. One hundred μl of samples from the wells in row 7 were discarded. One hundred μl PBS was added to the wells in row 8. Plates were incubated overnight at 4° C. and then blocked 2×200 μl with Thermo Scientific SuperBlock® Blocking Buffer. The coated plates were washed 2×200 μl with PBS-Tween and 1×200 μl with PBS. Based on the calculated concentrations, conjugates were diluted 1:250 (of 1 mg/ml) in PBS, added to the corresponding plates (100 μl/well) and then incubated for one hour in the dark. The plates were washed with 2×200 μl with PBS-Tween and 1×200 μl with PBS and filled with PBS buffer (100 μl/well) prior to scanning the black clear-bottom plates on LiCor Odyssey at 700 channel, to detect fluorescence intensity.
As shown in FIGS. 1-10, RFU and/or signal to background ratio (S/B) of the dyes conjugated to the indicated antibody were compared at various concentrations, using the indicated conjugation conditions.

The nature of data set [1]: Excitation/emission properties of dye NHS esters. The format is physicochemical. The source says: The following properties of V03-07005, V08-16072, V13-06190, and V17-03019 were compared with commercially available dyes. DyLight 680 NHS is a non-pegylated benzopyrylium dye and the ‘V’ dyes are pegylated dyes described above.
A further data set concerns NCoR2 in U2OS cells. The data set can be described thus: Immunofluorescence cell based assay, detection of NCoR2 with dye-GAM. As to conditions: for quenching with molar excess: NCoR2 experiment. As for the experimental part:
In the indicated experiments, the inventive compounds and commercial dye were evaluated for immunofluorescence in a cell based assay using the following protocol. Frozen U20S cell plates which were stored at −80° C. were thawed for 30 minutes at 50° C. Storage buffer (PBS) was removed and cells were permeabilized for 15 minutes with 0.1% Triton-X100 in 1×PBS buffer (100 μl/well). The cell plate was blocked for 60 minutes in 2% BSA/PBS-0.1% Triton-X100. Primary antibody, either mouse anti-ezrin (1.3 μg/ml) or mouse anti-NCoR2 (20 μg/ml), diluted in 2% BSA/PBS-0.1% Triton-X100 was added to the plate and incubated for one hour at room temperature. Control wells contained only 2% BSA/PBS-0.1% Triton-X100 blocker. After incubation, the antibody solution was removed from the plate and the plate was washed three times with 100 μl/well of PBS-0.5% Tween-20 and one time with 100 μl/well PBS. GAM secondary antibodies labeled with various molar excess of the inventive or commercial compound were diluted to 4 μg/ml in PBS and incubated for one hour at room temperature. The plates were washed three times with 100 μl/well of PBST and once with 100 μl/well PBS, and Hoechst (diluted to 0.1 μg/ml in PBS) was added to each well (100 μl/well). The plates were scanned on ArrayScan Plate Reader.
NCoR2 was detected in U2OS cells with V03-07005-GAM, V08-16072-GAM, V13-06190-GAM, V17-03019-GAM, DyLight 680-GAM, and Alexa Fluor 680-GAM at a 2.5×, 5×, 10×, and 15× molar excesses. Quantitative analysis of the data, expressed as Mean Total Intensity, which is the average total intensity of all pixels within a defined area or defined primary object such as a nucleus, is shown below, where “Neg” indicates the negative control condition.

The next data set concerns lamin B1 in U2OS cells. In words: Immunofluorescence cell based assay, detection of lamin B1 with dye-GAR. The settings on record: for quenching with molar excess: lamin B1 experiment. As for the experimental part: as §1
Quantitative analysis of the data of FIGS. 11-13, expressed as Mean Total Intensity, which is the average total intensity of all pixels within a defined area or defined primary object such as a nucleus, is shown below; “Neg” indicates negative control.

In the next data set the test system is HDAC2 in U2OS cells. The data set can be described thus: Immunofluorescence cell based assay, nuclear detection of HDAC2 with dye-GAR. As to conditions: for quenching with molar excess: HDAC2 experiment. The procedure: as §1
Quantitative analysis of the data of FIGS. 14-16, expressed as Mean Total Intensity, which is the average total intensity of all pixels within a defined area or defined primary object such as a nucleus, is shown below; “Neg” indicates negative control.

Marks after values point to notes of the source that are not given here.

Turning to `COCCOCCOCCOCCN(CCOCCOCCOCCOC)c1ccc2c(C(C)(C)C)cc(/C=C/C=C3/N(CCCS(=O)(=O)[O-])c4ccc(S(=O)(=O)[O-])cc4C3(C)CCCC(=O)O)[o+]c2c1.[Na+]` (stereo not shown) [Compound V03-07005, (E)-2-((E)-3-(4-tert-butyl-7-(di2,5,8,11-tetraoxatridecan-13-ylamino)chromenylium-2-yl)allylidene)-3-(3-carboxypropyl)-3-methyl-1-(3-sulfonatopropyl)indoline-5-sulfonate], the “staining performance, in words” value in the data set on U2OS cells is recorded as “best performing benzopyrylium dye”. Also, the “staining / S/B performance, in words” value with ezrin in U2OS cells is listed as “best performing benzopyrylium dye”; in the data set with NCoR2 in U2OS cells (NCoR2, 2.5×-15× molar excess) it was “best performing benzopyrylium dye”; in the data set on lamin B1 in U2OS cells (lamin B1, 2.5×-15× molar excess), “best performing benzopyrylium dye”; in the data set with HDAC2 in U2OS cells (HDAC2, 2.5×-15× molar excess), “best performing benzopyrylium dye”. In addition, the “binding intensity (RFU), in words” value in the data set on mouse IgG immunoglobulin is given as “performed best of the benzopyrylium dyes”. The figures for the Ex in data set [1] (EtOH) and in data set [1] (PBS) were 690 nm and “about 675 nm”, respectively.
Take `COCCOCCOCCOCCN(CCCS(=O)(=O)[O-])c1ccc2c(C(C)(C)C)cc(/C=C/C=C3/N(CCCCCC(=O)O)c4ccc(S(=O)(=O)[O-])cc4C3(C)CCCS(=O)(=O)[O-])[o+]c2c1.[Na+].[Na+]` (stereo not shown) [Compound V08-16072, (E)-2-((E)-3-(4-tert-butyl-7-((3-sulfonatopropyl)(2,5,8,11-tetraoxatridecan-13-yl)amino)chromenylium-2-yl)allylidene)-1-(5-carboxypentyl)-3-methyl-3-(3-sulfonatopropyl)indoline-5-sulfonate]: the “quenching with molar excess” value is “gradual quenching from 2.5× molar excess condition” with U2OS cells, “gradually quenched from the 2.5× molar excess condition” in the data set with NCoR2 in U2OS cells, “gradually quenching from 2.5× molar excess condition” in the data set on lamin B1 in U2OS cells and “gradually quenching from 2.5× molar excess condition” in the data set on HDAC2 in U2OS cells. Further, the Ex in data set [1] (EtOH) is listed as 690 nm; in data set [1] (PBS) it was “about 675 nm”.
On to `COCCOCCOCCOCCN(CCCS(=O)(=O)[O-])c1ccc2c(C(C)(C)C)cc(/C=C/C=C3/N(CCOCCOCCOCCOCCC(=O)O)c4ccc(S(=O)(=O)[O-])cc4C3(C)CCCS(=O)(=O)[O-])[o+]c2c1.[Na+].[Na+]` (stereo not shown) [Compound V13-06190, (E)-2-((E)-3-(4-tert-butyl-7-((3-sulfonatopropyl)(2,5,8,11-tetraoxatridecan-13-yl)amino)chromenylium-2-yl)allylidene)-1-(14-carboxy-3,6,9,12-tetraoxatetradecyl)-3-methyl-3-(3-sulfonatopropyl)indoline-5-sulfonate], for which the “quenching with molar excess” value is recorded as “gradual quenching from 2.5× molar excess condition” with U2OS cells, “gradually quenched from the 2.5× molar excess condition” in the data set on NCoR2 in U2OS cells, “gradually quenching from 2.5× molar excess condition” in the data set with lamin B1 in U2OS cells and “gradually quenching from 2.5× molar excess condition” with HDAC2 in U2OS cells. For the same molecule, the Ex is on record as 690 nm in data set [1] (EtOH) and “about 675 nm” in data set [1] (PBS).
On to `COCCOCCOCCOCCN(CCCS(=O)(=O)[O-])c1ccc2c(C(C)(C)C)cc(/C=C/C=C3/N(CCCS(=O)(=O)[O-])c4ccc(S(=O)(=O)[O-])cc4C3(C)CCCC(=O)O)[o+]c2c1.[Na+].[Na+]` (stereo not shown) [Compound V17-03019, (E)-2-((E)-3-(4-tert-butyl-7-((3-sulfonatopropyl)(2,5,8,11-tetraoxatridecan-13-yl)amino)chromenylium-2-yl)allylidene)-3-(3-carboxypropyl)-3-methyl-1-(3-sulfonatopropyl)indoline-5-sulfonate], for which the Ex is reported as 690 nm in data set [1] (EtOH) and “about 675 nm” in data set [1] (PBS).
`COCCOCCOCCOCCN(CCOCCOCCOCCOC)c1ccc2c(C(C)(C)C)cc(/C=C/C=C3/N(CCCS(=O)(=O)[O-])c4ccc(S(=O)(=O)[O-])cc4C3(C)CCCC(=O)ON3C(=O)CCC3=O)[o+]c2c1.[Na+]` (stereo not shown) [V03-07005-NHS] showed an Em in data set [1] of 708 nm. The figures for the Ex in data set [1] (EtOH) and in data set [1] (PBS) were 690 (EtOH) nm and 675 (PBS)* nm, respectively.
For `COCCOCCOCCOCCN(CCCS(=O)(=O)[O-])c1ccc2c(C(C)(C)C)cc(/C=C/C=C3/N(CCCCCC(=O)ON4C(=O)CCC4=O)c4ccc(S(=O)(=O)[O-])cc4C3(C)CCCS(=O)(=O)[O-])[o+]c2c1.[Na+].[Na+]` (stereo not shown) [V08-16072-NHS], in that order: 712 nm, 691 (EtOH) nm and 679 (PBS)* nm.
`COCCOCCOCCOCCN(CCCS(=O)(=O)[O-])c1ccc2c(C(C)(C)C)cc(/C=C/C=C3/N(CCOCCOCCOCCOCCC(=O)ON4C(=O)CCC4=O)c4ccc(S(=O)(=O)[O-])cc4C3(C)CCCS(=O)(=O)[O-])[o+]c2c1.[Na+].[Na+]` (stereo not shown) [V13-06190-NHS] had an Em in data set [1] of 712 nm. Besides, the Ex is 691 (EtOH) nm in data set [1] (EtOH) and 679 (PBS)* nm in data set [1] (PBS).
For `COCCOCCOCCOCCN(CCCS(=O)(=O)[O-])c1ccc2c(C(C)(C)C)cc(/C=C/C=C3/N(CCCS(=O)(=O)[O-])c4ccc(S(=O)(=O)[O-])cc4C3(C)CCCC(=O)ON3C(=O)CCC3=O)[o+]c2c1.[Na+].[Na+]` (stereo not shown) [V17-03019-NHS], in that order: 712 nm, 691 (EtOH) nm and 675 (PBS)* nm.
